Laboratory results published in PubChem BioAssay (NCI).
“And” between values parts separate entries of the source, which are not always exact repeats. Identical values can stand only once.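 Following 48 hours of exposure in 96-well plates, responses at five concentrations were used to interpolate endpoints linearly. GI50 is the concentration that inhibits growth by half. TGI: concentration producing complete growth inhibition.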

Tests used:
Experiment in all cases: NCI-60 cell line screen, 48 h
[1] = test system: A549 NSCLC
[2] = test system: CAKI-1 renal
[3] = test system: CCRF-CEM leukemia
[4] = test system: DLD-1 colon
[5] = test system: DMS 273 small cell lung
[6] = test system: K-562 leukemia
[7] = test system: MOLT-4 leukemia
[8] = test system: OVCAR-5 ovarian
[9] = test system: PC-3 prostate
[10] = test system: T-47D breast

Row | Structure (SMILES) | TGI [1] | TGI [2] | TGI [3] | TGI [4] | TGI [5] | TGI [6] | TGI [7] | TGI [8] | GI50 [1] | GI50 [2] | GI50 [3] | GI50 [6] | GI50 [7] | GI50 [8] | TGI [9] | GI50 [10] | TGI [10] | GI50 [4] | GI50 [5]
1 | CC(C)N(C(=O)C12CC3CC(CC(C3)C1)C2)C(C)C | > 50 µM | > 50 µM | > 50 µM | > 50 µM | > 50 µM | > 50 µM | > 50 µM | > 50 µM |  |  |  |  |  |  |  |  |  |  | 
2 | CCC1(O)C(=O)OCc2c1cc1n(c2=O)Cc2cc3ccc(C=O)cc3nc2-1 (stereo not drawn) | 50 µM and 18.8 µM | 19.2 µM and 8.81 µM | 0.37 µM and 1.14 µM | > 100 µM | 3.89 µM | 50 µM and 66 µM | 1.78 µM and 1.05 µM | 50 µM and 55.2 µM | 7.43 µM | 1.99 µM | 0.052 µM | 1.39 µM | 0.209 µM | 10.5 µM | 50 µM and > 100 µM | 0.412 µM | 3.31 µM and 8.72 µM |  | 
3 | CCCCCCCCCCCCCC1CCC(CC)N1 (stereo not drawn) | 36.2 µM | 29.6 µM | 18.2 µM | 28.9 µM | 29.1 µM | 33.3 µM | 30.6 µM | 30.3 µM |  |  |  |  |  |  |  |  |  |  | 
4 | COc1ccc(-c2cn3ccsc3n2)cc1 | > 100 µM | > 100 µM | > 100 µM | > 100 µM | > 100 µM | > 100 µM | > 100 µM | > 100 µM |  |  |  |  |  |  |  |  |  |  | 
5 | N.N.N.N.N.O=C([O-])c1nn[n-]n1.[Cl-].[Co+3] | > 100 µM | > 100 µM | > 100 µM | > 100 µM | > 100 µM | > 100 µM | > 100 µM | > 100 µM | > 100 µM | > 100 µM | > 100 µM | > 100 µM | > 100 µM | > 100 µM |  |  |  | > 100 µM | > 100 µM
6 | COc1ccc2c(c1)C=C([N+](=O)[O-])C(C1OC(C)(C)OC1C1COC(C)(C)O1)O2 (stereo not drawn) | 41.9 µM | 13.9 µM | 4.2 µM | 3.15 µM | 9.22 µM | 4.88 µM | 6.51 µM | 20.7 µM |  |  |  |  |  |  |  |  | 26.6 µM |  | 
7 | CN/N=C(/CCN1CCCC1)CC(c1ccccc1)c1c(O)c2ccccc2oc1=O (stereo not drawn) | > 100 µM | > 100 µM | > 100 µM | > 100 µM | > 100 µM | > 100 µM | > 100 µM | > 100 µM |  |  |  |  |  |  | > 100 µM |  | > 100 µM |  | 
8 | CCOC1=NC(=O)CC(c2ccccc2)S1 (stereo not drawn) | > 100 µM | > 100 µM | > 100 µM | > 100 µM | > 100 µM | > 100 µM | > 100 µM | > 100 µM |  |  |  |  |  |  |  |  |  |  | 
9 | Cn1cc(C(=O)c2ccccc2)ccc1=O | > 100 µM | > 100 µM | > 100 µM | > 100 µM | > 100 µM | > 100 µM | > 100 µM | > 100 µM |  |  |  |  |  |  |  |  |  |  | 
10 | Cc1ccc(Nc2nc3c(s2)C(=O)c2ccccc2C3=O)c(C)c1 | 37.6 µM | 29 µM | 25.8 µM | 31.4 µM | 43.7 µM | 43 µM | 23.4 µM | 34.8 µM |  |  |  |  |  |  |  |  |  |  | 
11 | Cc1ccc(N(C(=O)CC(=O)NN)C(=O)c2ccccc2Cl)cc1 | > 100 µM | > 100 µM | > 100 µM | > 100 µM | > 100 µM | > 100 µM | > 100 µM | > 100 µM |  |  |  |  |  |  |  |  |  |  | 
12 | COc1c2c(cc3nc4ccccc4nc13)CCC(C(C)(C)O)C2 (stereo not drawn) | > 100 µM | > 100 µM | > 100 µM | > 100 µM | > 100 µM | > 100 µM | > 100 µM | > 100 µM |  |  |  |  |  |  |  |  |  |  | 
13 | COC(=O)c1cccc2cccc(C(=O)Nc3ccc(C)cc3C)c12 | > 100 µM | > 100 µM | > 100 µM | > 100 µM | > 100 µM | > 100 µM | > 100 µM | > 100 µM |  |  |  |  |  |  |  |  |  |  | 
14 | CC[O-].CC[O-].O=C1c2ccccc2C(=O)c2c(O)ccc([O-])c21.O=C1c2ccccc2C(=O)c2c(O)ccc([O-])c21.[Ti+4] | > 100 µM | > 100 µM | > 100 µM | > 100 µM | > 100 µM | > 100 µM | > 100 µM | > 100 µM |  |  |  |  |  |  |  |  |  |  | 
15 | COc1ccc(C(C)c2cc3c(cc2OC)OCO3)cc1 (stereo not drawn) | > 100 µM | > 100 µM | > 66.2 µM | > 100 µM | 1.29 µM | > 57.6 µM | > 60.6 µM | > 100 µM |  |  |  |  |  |  | > 100 µM |  | > 100 µM |  | 
16 | NC1=NN(c2ccccc2)C(=O)C1C(=O)CCC(=O)Nc1cccc(C(F)(F)F)c1 (stereo not drawn) | > 100 µM | > 100 µM | > 100 µM | > 100 µM | > 100 µM | > 100 µM | > 100 µM | > 100 µM |  |  |  |  |  |  |  |  |  |  | 
17 | COC(=O)c1cc(Br)c(Br)n1C | > 100 µM | > 100 µM | > 100 µM | > 100 µM | > 100 µM | > 100 µM | > 100 µM | > 100 µM |  |  |  |  |  |  |  |  |  |  | 
